Assay results taken from US20050096370A1, “Method for inhibiting tumor angiogenesis and tumor growth” (Bizbiotech Co., Ltd., priority 2003, published 2005).

Tests used:
SK-N-MC neuroblastoma = SK-N-MC neuroblastoma xenograft tumor growth in nude mice; format: in vivo; conditions: YC-1 30 μg/g daily i.p. 2 weeks, P<0.01
Method: (§1) Male nude mice were injected subcutaneously in the flank with 5×10^6 viable Hep3B hepatoma (A), NCI-H87 gastric carcinoma (B), SiHa cervical carcinoma (C), SK-N-MC neuroblastoma (E), or Caki-I renal carcinoma (F) cells. […] Tumor size was measured over time. […] Differences between tumor sizes in the vehicle- and YC-1-treated groups for mice with Hep3B tumors were compared using ANOVA and Duncan's multiple range tests. * denotes P<0.001 relative to the control. Differences between tumor sizes in the vehicle and YC-1-treated groups for mice with other tumors (B-E) were compared using a Mann-Whitney U test. Each number beneath the error bar represents the P value of the difference relative to the control.
(§2) Male nude (BALB/cAnNC˜-nu/nu) mice were purchased from Charles River Japan Inc. (Shin-Yokohama, JAPAN). The animals were housed in a specific pathogen-free room under controlled temperature and humidity. All animal procedures were performed according to the established procedures of the Seoul National University Laboratory Animal Maintenance Manual. Eighty mice aged 7-8 weeks were injected with tumor cells for the xenograft experiments. […]
(§3) Tumors were measured every 2 or 3 days with calipers in two dimensions and the tumor volumes were calculated using the formula: Volume=axb2/2, where a is the width at the widest point of the tumor and h is the width perpendicular to a. […]

Caki-1 renal carcinoma = Caki-1 renal carcinoma xenograft tumor growth in nude mice; format: in vivo; conditions: YC-1 30 μg/g daily i.p. 2 weeks, P<0.01
Method: as §1, §2, §3

Hep3B hepatoma tumors = assay: histology and immunohistochemistry (H&E, CD31, HIF-1α) of Hep3B xenograft tumors; format: in vivo, nude mice; conditions: 30 μg/g daily i.p. 2 weeks
Method: FIG. 7 is a picture showing histopathology for Hep3B hepatoma tumors grown in nude mice. Male nude mice were injected subcutaneously in the flank with 5×10^6 viable Hep3B cells. […] After the last treatment, the mice were euthanized, the tumors removed, fixed with formalin, and embedded in paraffin. Tumor sections were cut from the paraffin blocks and stained with hernatoxylin and eosin. v, vessel; a, acinus. Scale bar=50 μm.
FIG. 8 is a picture showing vascular distribution in Hep3B hepatoma tumors grown in nude mice. Male nude mice were injected subcutaneously in the flank with 5×10^6 viable Hep3B cells. […] After the last treatment, the mice were euthanized, the tumors removed, fixed with formalin, and embedded in paraffin. Tumor sections were cut from the paraffin blocks and processed for immunohistochemical staining to detect endothelial cells with an anti-CD31 antibody. The immunostained sections were developed using the avidinbiotin-horseradish peroxidase method with diaminobenzidine as the chromagen. The sections were lightly counterstained with hematoxylin. Arrows indicate CD31-positive vessels. Scale bar=50 μm.
FIG. 9 is a picture showing expression and distribution of HIF-1α in Hep3B hepatoma tumors grown in nude mice. Male nude mice were injected subcutaneously in the flank with 5×10^6 viable Hep3B cells. […] After the last treatment, the mice were euthanized, the tumors removed, fixed with formalin, and embedded in paraffin. Tumor sections were cut from the paraffin blocks and processed for immunohistochemical staining to detect HIF-1α with an anti-HIF-1α antibody. The immunostained sections were developed using the avidin-biotin-horseradish peroxidase method with diaminobenzidine as the chromagen. The sections were lightly counterstained with hematoxylin. Arrows indicate HIF-1α positive cells. nu, nuclear staining; pn, perinuclear staining. Scale bar=50 μm. […]
Because HIF-1 is important in angiogenesis, we next assessed HIF-1α expression in tumor sections from vehicle- and YC-1-treated mice (FIG. 9).

[1] = system: HIF-1-regulated genes (VEGF, aldolase A, enolase 1); assay: RT-PCR of HIF-1-regulated gene mRNA in Hep3B xenografts; format: in vivo, nude mice; conditions: 30 μg/g daily i.p. 2 weeks
Method: Male nude mice were injected subcutaneously in the flank with 5×10^6 viable Hep3B cells. […] After the last treatment, the mice were euthanized, the tumors removed and lysates prepared for mRNA analysis. The mRNA levels of VEGF, aldolase A, enolase 1, and β-actin were measured by semi-quantitative RT-PCR. The quality of the extracted RNAs was verified by identifying the 18S ribosomal RNA (rRNA) on a 1% denaturing agarose gel.
The quality of the extracted RNAs was verified by identifying the 18S ribosomal RNA (rRNA) on a 1% denaturing agarose gel. VEGF, aldolase A and enolase 1 mRNA levels were also lower in YC-1-treated tumors than in vehicle-treated tumors one experiment. Results are expressed as the mean and 95% confidence intervals of 4 separate experiments.

OCc1ccc(-c2nn(Cc3ccccc3)c3ccccc23)o1 [YC-1, 3-(5′-hydroxymethyl-2′-furyl)-1-benzylindazole]
tumor size versus vehicle (SK-N-MC neuroblastoma): statistically significantly smaller | tumor size versus vehicle (Caki-1 renal carcinoma): statistically significantly smaller | CD31-immunopositive vessels in tumor sections (Hep3B hepatoma tumors): Few CD31-immunopositive vessels | HIF-1α immunoreactive cells in tumor sections (Hep3B hepatoma tumors): no HIF-1α inimunoreactive cells | hematoxylin-eosin histology of tumor sections (Hep3B hepatoma tumors): frequent acinus formation without well-developed blood vessels | VEGF, aldolase A and enolase 1 mRNA levels in tumors versus vehicle [1]: lower
